Source: ChEMBL document CHEMBL1127504, “Synthesis and evaluation of 4-(2'-methoxyphenyl)-1-[2'-[N-(2"-pyridinyl)-p- iodobenzamido]ethyl]piperazine (p-MPPI): a new iodinated 5-HT1A ligand” (J Med Chem, 1994)

Legend:
[1] = target: T1, 5-hydroxytryptamine receptor 1A (Rattus norvegicus, UniProt P19327); type: tissue-based, Hippocampus
T1 sequence (P19327 whole entry): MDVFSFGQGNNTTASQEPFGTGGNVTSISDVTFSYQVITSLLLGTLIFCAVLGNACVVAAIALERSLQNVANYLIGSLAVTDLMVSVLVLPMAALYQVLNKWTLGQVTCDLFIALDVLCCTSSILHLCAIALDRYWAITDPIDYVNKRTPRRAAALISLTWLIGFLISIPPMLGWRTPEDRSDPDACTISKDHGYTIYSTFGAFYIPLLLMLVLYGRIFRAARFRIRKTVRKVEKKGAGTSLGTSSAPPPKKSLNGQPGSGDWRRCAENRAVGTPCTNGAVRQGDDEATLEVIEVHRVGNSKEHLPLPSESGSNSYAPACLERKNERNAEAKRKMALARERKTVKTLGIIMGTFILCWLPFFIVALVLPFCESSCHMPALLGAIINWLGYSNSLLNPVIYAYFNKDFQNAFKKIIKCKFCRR

[2] = target: T1, 5-hydroxytryptamine receptor 1A; type: tissue-based, Hippocampus; remark: listed apart in the source
[3] = target: T1, 5-hydroxytryptamine receptor 1A; assay: biochemical
Description: Inhibition of binding of [125I]8-OH-PIPAT ligand to 5-hydroxytryptamine 1A receptor of rat hippocampal homogenates

[4] = target: T2, 5-hydroxytryptamine receptor 1A (Rattus norvegicus) (UniProt P19327); type: tissue-based; conditions: Hippocampus
T2 sequence (whole entry): T1 sequence (P19327 whole entry)

`COc1ccccc1N1CCN(CCN(C(=O)c2ccc(I)cc2)c2ccccn2)CC1` gave a Kd [1] of 0.3 nM.

For `COc1ccccc1N1CCN(CCCCNC(=O)C23C[C@H]4C[C@@H](C2)C[C@@H](C3)C4)CC1`, the Kd [2] was 0.4 nM.

For `CCCN(C/C=C/I)C1CCc2cccc(O)c2C1` (centres undefined), the Ki [3] was 0.38 nM and the Bmax (fM (mg of protein)-1) [4] was 310.
